Data: patent US7285555B2, “6-aryl-7-halo-imidazo[1,2-a]pyrimidines as anticancer agents” (Wyeth Holdings Corporation, priority 2003, dated 2007)

What was measured:
COLO 205 cells = experiment: MTS cytotoxicity test procedure with COLO 205 cells; type: cell-based; settings: Homo sapiens, 72 h, MTS assay, three days of culture
Protocol: (§1) The MTS assay, which is sold in kit form by Promega (Madison, Wis.; CellTiter 96 AQueous Non-Radioactive Cell Proliferation Assay), is based on the conversion by viable cells, but not by dead cells, of the tetrazolium salt, MTS (3-(4,5-dimethylthiazol-2-yl)-5-(3-carboxymethoxyphenyl)-2-(4-sulphophenyl)-2H-tetrazolium, inner salt), into a water-soluble colored formazan which is detected by spectrophotometry. Compounds are tested at nine concentrations, in order to determine IC50 values. For the test procedure, cells are harvested by trypsinization (or, in the case of non-adherent cells, by simple resuspension), washed, counted and distributed to wells of 96-well flat-bottom microtiter plates at 1000 cells per well in 200 μL of medium. In addition, one row of wells on a separate plate receives cells as above (“time 0” plate). All plates are incubated at 370 in humidified 5% CO2 in air for about 24 hr.
On day 2, compounds for test are diluted and added to wells. Compounds are dissolved in DMSO at 10 mg/mL. For each compound, nine serial 2-fold dilutions are prepared in DMSO. Ten μL of each dilution in DMSO is transferred to 100 μL of medium, mixed well, and then 5 μL of this dilution is transferred in quadruplicate to wells containing cells. The final high concentration of each compound is typically 1-5 μM. Plates are returned to the incubator for three days. At the time of drug addition to the experimental plates, the MTS assay is run on the “time 0” plate. This gives the “time 0 MTS value” which is related to the number of viable cells per well at the time of drug addition.
After three days of culture with test compounds (day 5 overall), the MTS assay is done on all wells of the experimental plates. The absorbance values of the quadruplicate sample wells are averaged and divided by the average of the “time 0” values. The average of control wells without drug, divided by the average “time 0” value, gives the maximal relative increase in MTS color yield due to cell growth during the final three days of culture. The average of control wells with high drug concentration, divided by the “time 0” value, gives the minimal relative color yield for cells that were completely killed. The nine values for each compound are plotted against concentration, and the concentration that produces a relative color yield half way between the maximum and minimum is taken as the IC50 value.
COLO 205 is a human colon carcinoma cell line that is used for comparative testing of the examples of this invention and several reference compounds (Table 1). This line is sensitive to paclitaxel and vincristine.

KB-V1 cells = experiment: MTS cytotoxicity test procedure with KB-V1 cells; type: cell-based, human; settings: Homo sapiens, KB-V1; MTS assay, KB VI cells, means of 2 independent experiments
From the text: (§2) Human cancer cell lines, unless otherwise noted, are obtained from the American Type Culture Collection (Rockville, Md.). The following drug-sensitive parental cell lines, and their derived drug-resistant counterparts, are obtained from the originators as listed: (a) S1 (parental line from a subclone of human colon carcinoma line LS174T) and derived S1-M1-3.2 (herein called S1-M1) which expresses the MXR drug transporter protein, are provided by Dr. L. Greenberger, Wyeth Research (Rabindran, S. K., He, H., Singh, M., Brown, E., Collins, K. I., Annable, T., and Greenberger, L. M. Reversal of a novel multidrug resistance mechanism in human colon carcinoma cells by fumitremorgin C. Cancer Res., 58: 5850-5858,1998); (b) parental HL-60 human promyelocytic leukemia line and derived HL-60/ADR, which expresses the MRP1 drug transporter protein, are provided by Dr. M. Center, University of Kansas (McGrath, T., and Center, M. S. Adriamycin resistance in HL60 cells in the absence of detectable P-glycoprotein. Biochem. Biophys. […] J. Biol. Chem., 261: 7762-7770, 1986) via Dr. L. Greenberger, Wyeth Research.
The MTS assay, which is sold in kit form by Promega (Madison, Wis.; CellTiter 96 AQueous Non-Radioactive Cell Proliferation Assay), is based on the conversion by viable cells, but not by dead cells, of the tetrazolium salt, MTS (3-(4,5-dimethylthiazol-2-yl)-5-(3-carboxymethoxyphenyl)-2-(4-sulphophenyl)-2H-tetrazolium, inner salt), into a water-soluble colored formazan which is detected by spectrophotometry. Compounds are tested at nine concentrations, in order to determine IC50 values. For the test procedure, cells are harvested by trypsinization (or, in the case of non-adherent cells, by simple resuspension), washed, counted and distributed to wells of 96-well flat-bottom microtiter plates at 1000 cells per well in 200 μL of medium. […]
(§3) After three days of culture with test compounds (day 5 overall), the MTS assay is done on all wells of the experimental plates. The absorbance values of the quadruplicate sample wells are averaged and divided by the average of the “time 0” values. […]

HL-60/ADR cells = experiment: MTS cytotoxicity test procedure with HL-60/ADR cells; type: cell-based, human; settings: Homo sapiens, HL60/ADR; MTS assay, HL-60/ADR cells, means of 2 independent experiments
From the text: as §2, §1
(§4) On day 2, compounds for test are diluted and added to wells. Compounds are dissolved in DMSO at 10 mg/mL. For each compound, nine serial 2-fold dilutions are prepared in DMSO. Ten μL of each dilution in DMSO is transferred to 100 μL of medium, mixed well, and then 5 μL of this dilution is transferred in quadruplicate to wells containing cells. […] Plates are returned to the incubator for three days. At the time of drug addition to the experimental plates, the MTS assay is run on the “time 0” plate.
After three days of culture with test compounds (day 5 overall), the MTS assay is done on all wells of the experimental plates. The absorbance values of the quadruplicate sample wells are averaged and divided by the average of the “time 0” values. […] The nine values for each compound are plotted against concentration, and the concentration that produces a relative color yield half way between the maximum and minimum is taken as the IC50 value.
HL-60/ADR cells overexpress the multidrug resistance protein MRP1 which mediates resistance to some chemotherapeutics (Gottesman, M. M., Fojo, T., and Bates, S. E. Multidrug resistance in cancer: role of ATP-dependent transporters. Nature Rev. Cancer, 2: 48-58, 2002). The IC50 values of example 6 of this invention, as well as reference compounds, on HL-60/ADR are compared to values on the sensitive parental HL-60 line.

pure tubulin = experiment: Tubulin polymerization test procedure with pure tubulin; type: biochemical, bovine; settings: pure tubulin without added GTP
Protocol: (§5) Medium is RPMI-1640 with L-glutamine, supplemented with 10% heat-inactivated fetal calf serum, 100 units/mL penicillin, and 100 μg/mL streptomycin (Gibco, Grand Island, N.Y.). Microtubule-associated protein (MAP)-rich tubulin, containing about 70% tubulin and 30% MAPs (#ML113), and highly purified tubulin (>99% pure, #TL238), both from bovine brain, are obtained from Cytoskeleton, Inc., Denver, Colo. PEM buffer (80 mM piperazine-N,N′-bis[2-ethanesulfonic acid], pH 6.9, 1 mM ethylene glycol-bis(β-aminoethyl ether)-N,N,N′,N′-tetraacetic acid, 1 mM magnesium chloride) and guanosine 5′-triphosphate (GTP) are also obtained from Cytoskeleton. [^3H]paclitaxel, specific activity 14.7 Ci/mmol, is purchased from Moravek Biochemicals (Brea, Calif.). [^3H]vinblastine, specific activity 9.60 Ci/mmol and MicroSpin G-50 columns are obtained from Amersham Biosciences (Piscataway, N.J.). […] Other reagents are obtained from Sigma (St. Louis, Mo.).
The procedure with pure tubulin is similar except for the following changes. […] The supernatant after centrifugation is dispensed to a ½-area 96-well plate already containing compounds. Each compound is tested in duplicate at a final concentration of 24.3 μM. The plate reader μs thermostated at 35°.

MAP-rich tubulin = experiment: Tubulin polymerization test procedure with MAP-rich tubulin; type: biochemical, bovine; settings: MAP-rich tubulin with 1 mM GTP, compound 0.3 μM, at 20 min
Protocol: as §5
MAP-rich tubulin is dissolved in ice-cold PEM buffer containing 1 mM GTP (GPEM buffer) at a concentration of 1.3 mg/mL. The solution is centrifuged at top speed in an Eppendorf model 5415C microcentrifuge (Brinkmann Instruments, Westbury, N.Y.) for 10 min at 40 immediately before use. The tubulin solution is added to wells of a ½-area 96-well plate (Costar No. 3696, Corning, Inc., Corning, N.Y.) already containing the compounds of interest. Each compound is tested in duplicate at a final concentration of 0.3 μM in a volume of 110 μL per well. The final DMSO concentration in all wells is 0.3%. Control reactions, which receive compound solvent only, are done in quadruplicate. The plate is put in a SpectraMax Plus plate reader (Molecular Devices Corp. Sunnyvale, Calif.) thermostated at 240 and the absorbance of each well at 340 nm, a measure of the appearance of turbidity due to tubulin polymer formation, is determined every minute for 60 minutes. The absorbance at time 0 for each well is subtracted from each of the subsequent absorbance readings for that well, and then the duplicates are averaged.
In this assay, control reactions with MAP-rich tubulin show an S-shaped absorbance profile characterized by three phases: first, a lag phase during which no change in absorbance occurs; second, a polymerization phase in which absorbance increases; and third, a plateau phase in which absorbance has reached a maximum and little or no further change occurs. Polymerization enhancers such as paclitaxel and docetaxel shorten or eliminate the lag phase, increase the rate of the polymerization phase, and often increase the height of the plateau. […] This has been expressed quantitatively in Table 6 by dividing the mean A340 of each sample at 20 min by the mean A340 of the control at 20 min to give a fold enhancement over control. […]

S1-M1 cells = experiment: MTS cytotoxicity test procedure with S1-M1 cells; type: cell-based, human; settings: Homo sapiens; MTS assay, S1-M1 cells, means of 2 independent experiments
From the text: as §2, §1, §4, §3

Compound Fc1cc(F)c(-c2c(Cl)nc3nccn3c2NCC(F)(F)F)c(F)c1 [Example 3, 7-chloro-N-(2,2,2-trifluoroethyl)-6-(2,4,6-trifluorophenyl)imidazo[1,2-a]pyrimidin-5-amine] has an IC50 (COLO 205 cells) of 742 nM and a melting point of 155 to 157 °C.

In the case of Fc1cc(F)c(-c2c(Cl)nc3nccn3c2C2CCCCCC2)c(F)c1 [Example 5, 7-Chloro-5-cycloheptyl-6-(2,4,6-trifluorophenyl)imidazo[1,2-a]pyrimidine], the IC50 (COLO 205 cells) is reported as 207 nM.

In the case of O=C1c2c(O)ccc(O)c2C(=O)c2c(NCCNCCO)ccc(NCCNCCO)c21 [Mitoxantrone, reference compound], the IC50 (KB-V1 cells) is reported as 1930 nM and the IC50 (HL-60/ADR cells) is reported as 161 nM.

For CC(=O)O[C@@]12CO[C@@H]1C[C@H](O)[C@@]1(C)C(=O)[C@H](O)C3=C(C)[C@@H](OC(=O)[C@H](O)[C@@H](NC(=O)OC(C)(C)C)c4ccccc4)C[C@@](O)([C@@H](OC(=O)c4ccccc4)[C@H]21)C3(C)C [Docetaxel, reference compound], the “polymerization of pure tubulin without GTP (in words)” value (pure tubulin) was “able to induce polymerization” and the “A340 Compound / A340 Control (fold enhancement over control)” value (MAP-rich tubulin) was 5.4.

Fc1cc(F)c(-c2c(Cl)nc3nccn3c2N2CCCCC2)c(F)c1 [Example 2, 7-Chloro-5-piperidin-1-yl-6-(2,4,6-trifluorophenyl)imidazo[1,2-a]pyrimidine] showed an IC50 (COLO 205 cells) of 396 nM.

Compound COc1cccc2c1C(=O)c1c(O)c3c(c(O)c1C2=O)C[C@@](O)(C(=O)CO)C[C@@H]3O[C@H]1C[C@H](N)[C@H](O)[C@H](C)O1 [Doxorubicin, reference compound] has an IC50 (HL-60/ADR cells) of 2080 nM and an IC50 (S1-M1 cells) of 2520 nM.

With Fc1cc(F)c(-c2c(Cl)nc3nccn3c2N2CCCCCC2)c(F)c1 [Example 1, 5-azepan-1-yl-7-chloro-6-(2,4,6-trifluorophenyl)imidazo[1,2-a]pyrimidine] the IC50 (COLO 205 cells) was 259 nM and the melting point was 106 to 108 °C.
